This is an account of results in patent US4285949A, “Vincamine derivatives, their preparation and therapeutical use” (Omnichem Societe Anonyme, priority 1978, dated 1981).

The nature of data set [1]: Acute toxicity, LD50 by intravenous route in mice (Lichtfield and Wilcoxon). Conditions: mouse, in vivo. The procedure: The compounds of the invention as well as vincamine were administered by intravenous route to Charles River stock mice. The 50% lethal doses (LD50) where determined graphically according to the method of Lichtfield and Wilcoxon (J. Pharmacol. Exp. Therap. […], 96, 99).

The next data set has as its system mice. Briefly: Hypobaric anoxia test on mice. The format is in vivo, mice (Charles River stock). Conditions: intragastric, 15 minutes before; for Survival time: 190 mm Hg (5.25% oxygen), control 39 (±2); for Survival time Variation %: 190 mm Hg, increase vs control animals. Here is the method:
Charles River stock mice of the same sex, weighing about 20±2 g are shared into three lots of 10 animals each. The lots 1 and 2 comprise treated animals, i.e. those having received either a substance to be tested or vincamine, together with solvent, at 1 ml/100 g of body weight. The third lot comprises control animals i.e. those having only received solvent at 1 ml/100 g of body weight.
The compounds examined are administered by intragastric route 15 minutes before the experiment.
The animals are placed in an atmosphere impoverished in oxygen by creating a partial vacuum (190 mm Hg, corresponding to 5.25% oxygen), in about 30 seconds.
The survival time of the mice is measured with a chronometer. Said time is increased by the agents capable of enhancing oxygenation of tissues and more particularly brain oxygenation. The percentages of survival time increase with respect to the values obtained for the control animals are calculated.
The doses were selected to obtain a 50-70% increase of the survival time of the animals under the experimental conditions.

Structures are written as SMILES.

`CC[C@]12C=CCN3CCc4c(n(c5ccc(Cl)cc45)[C@@](O)(C(=O)OC)C1)[C@@H]32` [OC-231 N, 10-Chloro-Δ14-vincamine]: the LD50 (in general, the dose at which mortality reaches 50%) in data set [1] (iv) is 47 mg/kg. Further, in the data set with mice (30 mg/kg), the Survival time is listed as 60 (±1) and the “Survival time Variation %” value was “+53%”.

`CC[C@]12C=CCN3CCc4c(n(c5ccc(Cl)cc45)C(C(=O)OC)=C1)[C@@H]32` [OC-233, 10-Chloro-apo-Δ14-vincamine] came in with an LD50 in data set [1] (iv) of 52 mg/kg. For the same molecule, in the data set with mice (20 mg/kg), the Survival time is on record as 57 (±4) and the “Survival time Variation %” value was “+46%”.

In data set [1] (mice, intravenous), `CC[C@]12CCCN3CCc4c(n(c5ccccc45)[C@@](O)(C(=O)OC)C1)[C@@H]32` [Vincamine] yielded an LD50 of 47 mg/kg. In the data set on mice (200 mg/kg), the Survival time was 58 (±4) and the “Survival time Variation %” value was “+49%”.

On to `CC[C@]12C=CCN3CCc4c(n(c5ccc(Cl)cc45)[C@](O)(C(=O)OC)C1)[C@@H]32` [OC-231 E, 10-Chloro-16-epiΔ14-vincamine], for which the LD50 in data set [1] (iv) was 47 mg/kg. In addition, in the data set with mice (30 mg/kg), the Survival time was 62 (±6) and the “Survival time Variation %” value was “+55%”.
